Experiments:
[1] = tested on: MDA-MB-468 cells; assay: Anti-proliferative effect on MDA-MB-468 cells, inhibition rate at 100 nM (tetrazolium salt method); type: cell-based; conditions: Homo sapiens, 72 hours
Method: Representative compounds of the present invention were tested at different concentrations (from 1000 nM to 25 nM) to assess their ability to inhibit the proliferation of MDA-MB-468 cells. Cells were grown in RPMI 1640 (Welgene)+10% FBS (Gibco)+1% penicillin/streptomycin (Gibco) and cultured at 37° C. in a humidified chamber in the presence of 5% CO2.
MDA-MB-468 cells cultured in 96-well cell culture plates were treated with representative compounds of the present invention and cultured for 72 hours.

[2] = tested on: MDA-MB-468 cells; assay: Anti-proliferative effect on MDA-MB-468 cells, IC50 (MTT); type: cell-based
Method: The compounds of the present invention were tested at different concentrations (from 1000 nM to 1 nM) to assess their ability for inhibiting the proliferation of MDAMB-468 cells. Cells were cultivated in RPMI 1640 (Welgene)+10% FBS (Gibco)+1% penicillin/streptomycin (Gibco) and cultured at 37° C. in a humidified chamber in the presence of 5% C02.
MDA-MB-468 cells cultured in 96-well cell culture plates were treated with the compounds of the present invention and incubated for 72 hours.

[3] = tested on: HepG2 cells; assay: HepG2 cell viability assay (CCK-8); type: cell-based, human
Method: The ability to inhibit the proliferation of HepG2 cells, which are human hepatocellular carcinoma cells, was measured through the in vitro cell viability assay. Cells were cultured at 37° C. in a humidified condition in the presence of 5% CO2 using a culture medium of MEM (Welgene)+10% FBS (Gibco)+1% penicillin/streptomycin (Gibco). […] Cell viability was measured by CCK-8 method using tetrazolium salt, and the ability of the compounds according to the present invention to inhibit cancer cell proliferation was calculated.

[4] = target: recombinant purified human CDK7 kinase (Homo sapiens (Human), UniProt P50613); assay: CDK7 kinase-inhibitory activity, ADP-Glo kinase assay; type: biochemical; conditions: ATP 90 µM, MBP substrate, 2 hours at 30° C., read-out: CDK7 inhibition(IC50 nM)
Sequence of recombinant purified human CDK7 kinase (P50613 whole entry): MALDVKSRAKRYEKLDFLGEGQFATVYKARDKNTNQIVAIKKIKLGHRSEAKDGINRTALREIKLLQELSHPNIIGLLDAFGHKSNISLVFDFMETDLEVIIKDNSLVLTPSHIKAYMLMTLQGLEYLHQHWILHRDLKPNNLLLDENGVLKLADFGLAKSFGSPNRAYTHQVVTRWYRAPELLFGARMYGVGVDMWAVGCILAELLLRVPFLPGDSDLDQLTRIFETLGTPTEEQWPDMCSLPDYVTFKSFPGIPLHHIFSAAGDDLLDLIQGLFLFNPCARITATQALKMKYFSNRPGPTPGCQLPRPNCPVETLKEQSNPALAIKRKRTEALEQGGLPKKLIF
Sequence of recombinant purified human CDK7 kinase (P51946 whole entry partner): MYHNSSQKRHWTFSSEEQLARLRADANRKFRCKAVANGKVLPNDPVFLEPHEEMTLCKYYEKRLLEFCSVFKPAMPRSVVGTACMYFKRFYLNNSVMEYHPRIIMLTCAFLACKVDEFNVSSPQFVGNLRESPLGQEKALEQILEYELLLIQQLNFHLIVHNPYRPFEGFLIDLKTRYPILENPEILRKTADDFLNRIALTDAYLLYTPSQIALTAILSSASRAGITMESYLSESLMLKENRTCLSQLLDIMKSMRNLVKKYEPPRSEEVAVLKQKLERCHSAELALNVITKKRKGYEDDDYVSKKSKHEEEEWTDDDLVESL
Sequence of recombinant purified human CDK7 kinase (P51948 whole entry partner): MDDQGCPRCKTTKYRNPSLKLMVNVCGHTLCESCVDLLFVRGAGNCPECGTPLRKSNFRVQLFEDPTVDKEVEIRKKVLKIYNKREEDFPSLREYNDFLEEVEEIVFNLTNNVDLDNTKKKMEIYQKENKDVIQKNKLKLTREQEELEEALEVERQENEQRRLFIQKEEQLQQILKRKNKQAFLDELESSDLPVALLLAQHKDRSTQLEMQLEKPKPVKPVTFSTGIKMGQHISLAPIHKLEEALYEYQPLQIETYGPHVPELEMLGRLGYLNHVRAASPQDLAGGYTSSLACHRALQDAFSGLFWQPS
Method: Representative compounds of the present invention were assayed in vitro for CDK7 kinase-inhibitory activities using ADP-Glo platform. In detail, CDK7 kinase-inhibitory activity was measured using recombinant purified human CDK7 kinase (ThermoFisher, PV3868) and ADP Glo kinase assays kit (Promega, V9102). CDK7 kinase was diluted with 1× kinase reaction buffer (40 mM Tris-C1, pH 7.5, 20 mM MgCl2, 0.1 mg/ml BSA and 50 [M DTT) and added to 96 well plates (final concentration of CDK7 per reaction: 50 ng). The compound was finally treated to be a 1% DMSO aqueous solution, and a substrate cocktail containing ATP (final concentration of 90 [M) and 0.2 μg/μl of MBP (Myelin basic protein) in a total of 25 μl of reaction mass was added to 96 well plates, thereby initiating an enzymatic reaction. After 2 hours of incubation (30° C.), equivalent volume (25 μl per reaction) of ADP Glo was added and incubated (30° C.) at room temperature for 60 minutes. The kinase detection reagent (50 μl per reaction) was then added and incubated (30° C.) at room temperature for 30 minutes. The kinase activity was measured by chemiluminescence method according to ADP Glo Kanease Assay Kit instruction manual, and the CDK7-inhibitory activity of the compounds according to the present invention was calculated. The result analysis of each compound was performed using Microsoft Excel, and IC50 values were calculated by Prism software.

[5] = target: CDK2 (Homo sapiens (Human), UniProt P24941); assay: scanMAX Kinase Assay Panel, CDK2; type: binding; conditions: read-out: % inhibition at 1 uM CDK2, compound at 1 uM
Method: (§1) The assay (scanMAX Kinase Assay Panel) was performed. […] Kinase Assay Panel contains a set of 468 kinases including CDK2, CDK5. The compounds were screened at 1 [M, and results for binding interactions are reported compared to control (%).

[6] = target: CDK5 (Homo sapiens (Human), UniProt Q00535); assay: scanMAX Kinase Assay Panel, CDK5; type: binding; conditions: read-out: % inhibition at 1 uM CDK5, compound at 1 uM
Sequence of CDK5 (Q00535 whole entry): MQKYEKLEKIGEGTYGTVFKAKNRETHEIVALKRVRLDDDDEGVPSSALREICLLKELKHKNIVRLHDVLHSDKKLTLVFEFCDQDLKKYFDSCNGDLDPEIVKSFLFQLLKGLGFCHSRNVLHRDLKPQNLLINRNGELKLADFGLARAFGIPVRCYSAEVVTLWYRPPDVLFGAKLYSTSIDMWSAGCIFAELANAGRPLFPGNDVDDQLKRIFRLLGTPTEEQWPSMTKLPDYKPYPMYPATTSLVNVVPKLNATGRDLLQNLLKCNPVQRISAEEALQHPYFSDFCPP
Method: as §1

[7] = target: CDK7 (Homo sapiens (Human), UniProt P50613); assay: scanMAX Kinase Assay Panel, CDK7; type: binding; conditions: read-out: % inhibition at 1 uM CDK7, compound at 1 uM
Sequence of CDK7 (P50613 whole entry): as the sequence (P50613 whole entry) above
Method: as §1

| IC50 ([2]; Homo sapiens, MDA-MB-468, 72 h) [nM] | IC50 ([3]; Homo sapiens, HepG2, 72 h) [nM] | IC50 [4] [nM] | Structure (SMILES) | inhibition at 0.1 µM [1] [%] | other results |
| --- | --- | --- | --- | --- | --- |
| 63 | 5 | – | C=CC(=O)Nc1ccc(-c2cccc([C@H](C)C(=O)Nc3ncc(C4CC4)s3)c2)cn1 [Example 14] | 74 | – |
| 10 | 8 | 22 | C=CC(=O)Nc1cnc(-c2cncc(C(C)C(=O)Nc3ncc(C(F)(F)F)s3)c2)cn1 (centres unmarked) [Example 45, N-(5-(5-(1-oxo-1-((5-(trifluoromethyl)thiazol-2-yl)amino)propan-2-yl)pyridin-3-yl)pyrazin-2-yl)acrylamide] | 59 | – |
| – | – | 19 | C=CC(=O)Nc1cnc(-c2cncc([C@H](C)C(=O)Nc3ncc(C(F)(F)F)s3)c2)cn1 [Example 52, (S)-N-(5-(5-(1-oxo-1-((5-(trifluoromethyl)thiazol-2-yl)amino)propan-2-yl)pyridin-3-yl)pyrazin-2-yl)acrylamide] | 72 | – |
| 30 | 5 | 7 | C[C@H](C(=O)Nc1ncc(C(F)(F)F)s1)c1cccc(-c2cnc(NC(=O)/C=C/CN(C)C)c(C#N)c2)c1 [Example 101, (S,E)-N-(3-cyano-5-(3-(1-oxo-1-((5-(trifluoromethyl)thiazol-2-yl)amino)propan-2-yl)phenyl)pyridin-2-yl)-4-(dimethylamino)but-2-enamide] | – | inhibition at 1 µM [5]: 26%; inhibition at 1 µM [6]: 22%; inhibition at 1 µM [7]: 99% |
| – | – | 71 | C[C@H](C(=O)Nc1ncc(N(C)C)s1)c1cccc(-c2cnc(NC(=O)/C=C/CN(C)C)cn2)c1 [Example 106, (S,E)-4-(dimethylamino)-N-(5-(3-(1-((5-(dimethylamino)thiazol-2-yl)amino)-1-oxopropan-2-yl)phenyl)pyrazin-2-yl)but-2-enamide] | – | – |
| 65 | – | 13 | C[C@H](C(=O)Nc1ncc(C(F)(F)F)s1)c1cccc(-c2ccc(NC(=O)/C=C/CN(C)C)nc2)c1 [Example 116, (S,E)-4-(dimethylamino)-N-(5-(3-(1-oxo-1-((5-(trifluoromethyl)thiazol-2-yl)amino)propan-2-yl)phenyl)pyridin-2-yl)but-2-enamide] | – | – |
| 56 | – | 15 | C[C@H](C(=O)Nc1ncc(C(F)(F)F)s1)c1cccc(-c2cnc(NC(=O)/C=C/CN3CC[C@H](F)C3)cn2)c1 [Example 117, (E)-4-((S)-3-fluoropyrrolidin-1-yl)-N-(5-(3-((S)-1-oxo-1-((5-(trifluoromethyl)thiazol-2-yl)amino)propan-2-yl)phenyl)pyrazin-2-yl)but-2-enamide] | – | – |
| 44 | – | 9 | C[C@H](C(=O)Nc1ncc(C(F)(F)F)s1)c1cccc(-c2cnc(NC(=O)/C=C/CN3CCC(O)C3)cn2)c1 (stereo partly drawn) [Example 119, (E)-4-(3-hydroxypyrrolidin-1-yl)-N-(5-(3-((S)-1-oxo-1-((5-(trifluoromethyl)thiazol-2-yl)amino)propan-2-yl)phenyl)pyrazin-2-yl)but-2-enamide] | – | – |
| 33 | – | 13 | CCc1cnc(NC(=O)[C@@H](C)c2cccc(-c3cnc(NC(=O)/C=C/CN(C)C)c(C)c3)c2)s1 [Example 125] | – | – |

Further lines, the compound ahead of its results:

| Structure (SMILES) | IC50 ([2]; Homo sapiens, MDA-MB-468, 72 h) [nM] | IC50 ([3]; Homo sapiens, HepG2, 72 h) [nM] | IC50 [4] [nM] | inhibition at 0.1 µM [1] [%] | other results |
| --- | --- | --- | --- | --- | --- |
| C=CC(=O)Nc1ccc(-c2cccc(C(C)C(=O)Nc3ncc(C4CC4)s3)c2)cn1 (centres unmarked) [Example 2, N-(5-(3-(1-((5-cyclopropylthiazol-2-yl)amino)-1-oxopropan-2-yl)phenyl)pyridin-2-yl)acrylamide] | 104 | 15 | – | 50 | – |
| CC(C(=O)Nc1ncc(C2CC2)s1)c1cccc(-c2ccc(NC(=O)/C=C/CN(C)C)nc2)c1 (centres unmarked) [Example 6, (E)-N-(5-(3-(1-((5-cyclopropylthiazol-2-yl)amino)-1-oxopropan-2-yl)phenyl)pyridin-2-yl)-4-(dimethylamino)but-2-enamide] | 86 | 22 | – | 66 | – |
| C=CC(=O)Nc1cnc(-c2cccc([C@H](C)C(=O)Nc3ncc(C(F)(F)F)s3)c2)cn1 [Example 37, (S)-N-(5-(3-(1-oxo-1-((5-(trifluoromethyl)thiazol-2-yl)amino)propan-2-yl)phenyl)pyrazin-2-yl)acrylamide] | 40 | 8 | 17 | 60 | – |
| CC(C(=O)Nc1ncc(C(F)(F)F)s1)c1cncc(-c2cnc(NC(=O)/C=C/CN(C)C)cn2)c1 (centres unmarked) [Example 63, (E)-4-(dimethylamino)-N-(5-(5-(1-oxo-1-((5-(trifluoromethyl)thiazol-2-yl)amino)propan-2-yl)pyridin-3-yl)pyrazin-2-yl)but-2-enamide] | 20 | 2 | 17 | – | – |
| CC(C(=O)Nc1ncc(Cl)s1)c1cncc(-c2cnc(NC(=O)/C=C/CN(C)C)cn2)c1 (centres unmarked) [Example 73, (E)-N-(5-(5-(1-((5-chlorothiazol-2-yl)amino)-1-oxopropan-2-yl)pyridin-3-yl)pyrazin-2-yl)-4-(dimethylamino)but-2-enamide] | 35 | – | 43 | – | – |
| C[C@H](C(=O)Nc1ncc(C(F)(F)F)s1)c1cccc(-c2cnc(NC(=O)/C=C/CN(C)C)cn2)c1 [Example 91, (S,E)-4-(dimethylamino)-N-(5-(3-(1-oxo-1-((5-(trifluoromethyl)thiazol-2-yl)amino)propan-2-yl)phenyl)pyrazin-2-yl)but-2-enamide] | – | – | 8 | – | IC50 ([2]; 72 hours): 38 nM; IC50 ([3]; 72 hours): 9.5 nM |
| C[C@H](C(=O)Nc1ncc(C(F)(F)F)s1)c1cccc(-c2cnc(NC(=O)/C=C/CN3CCN(C)CC3)cn2)c1 [Example 95, (S,E)-4-(4-methylpiperazin-1-yl)-N-(5-(3-(1-oxo-1-((5-(trifluoromethyl)thiazol-2-yl)amino)propan-2-yl)phenyl)pyrazin-2-yl)but-2-enamide] | 57 | – | 80 | – | – |
| CCc1cnc(NC(=O)[C@@H](C)c2cccc(-c3cnc(NC(=O)/C=C/CN(C)C)c(C#N)c3)c2)s1 [Example 121, (S,E)-N-(3-cyano-5-(3-(1-((5-ethylthiazol-2-yl)amino)-1-oxopropan-2-yl)phenyl)pyridin-2-yl)-4-(dimethylamino)but-2-enamide] | 23 | 3 | 7 | – | inhibition at 1 µM [5]: 20%; inhibition at 1 µM [6]: 30%; inhibition at 1 µM [7]: 99% |
| CCc1cnc(NC(=O)[C@@H](C)c2cccc(-c3cnc(NC(=O)/C=C/CN(C)C)c(F)c3)c2)s1 [Example 130, (S,E)-4-(dimethylamino)-N-(5-(3-(1-((5-ethylthiazol-2-yl)amino)-1-oxopropan-2-yl)phenyl)-3-fluoropyridin-2-yl)but-2-enamide] | 18 | 3.8 | 8 | – | – |

From patent US12110299B2, “Thiazole derivatives and pharmaceutically acceptable salts thereof” (YUNGJIN PHARM. CO., LTD., priority 2018, dated 2024)
